Among the data in PubChem BioAssay (NCI) are GI50 and TGI values, retold here.

Each structure is given as a SMILES string.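 Each compound was tested at five concentrations against cells in 96-well plates for 48 hours. GI50: concentration for 50% inhibition of growth. TGI: concentration producing complete growth inhibition.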 A value given as a limit tells only on which side of the number the result lay.

Assay in all cases: NCI-60 cell line screen, 48 h
The test system of assay [1] is SNB-75 CNS.
In assay [2] the test system is EKVX NSCLC.
In assay [3] the test system is HL-60(TB) leukemia.
The subject of assay [4] is TK-10 renal.
Assay [5] relates to NCI/ADR-RES ovarian.
Assay [6] relates to UO-31 renal.
The test system of assay [7] is BT-549 breast.
Assay [8] concerns NCI-H226 lung.
Assay [9] concerns MDA-MB-231 breast.
In assay [10] the test system is RXF 393 renal.

In the case of `Nc1nc(Cl)nc2c1ncn2C1O[C@H](CO)[C@@H](O)[C@@H]1F` (stereo not given in full), the GI50 in [1] is 2250 nM; in assay [2] it was 1510 nM; in [3], 30.5 nM; in assay [5], 49.8 nM; in [6], 0.156 µM; in assay [7] it was 0.091 µM. Further, the values for the GI50 in assay [8] and in assay [10] were 0.329 µM and 1480 nM, respectively. The TGI was above 100 µM in assay [1]; above 100 µM in assay [2]; 0.14 µM in [3]; above 100 µM in [4]; above 100 µM in assay [5]; 1.24 µM in [6]. Besides, the TGI in [7] was 0.702 µM; in assay [8], 37.5 µM; in assay [9], above 100 µM; in [10] it was 35.3 µM.
As for `CCCCCCCCSC1=CC(=O)C(OC)=C(OC)C1=O`, the GI50 in [1] was 2210 nM; in assay [2] it was 10100 nM; in [3] it was 437 nM; in assay [4] it was 2060 nM; in [5], 2490 nM; in assay [6], 1.77 µM. The GI50 in assay [7] is 7 µM; in assay [8], 5.4 µM; in assay [9] it was 3500 nM; in [10], 1610 nM. Further, the TGI in assay [1] turned out to be 16.7 µM; in assay [2], 24.8 µM; in [3], 21.4 µM; in assay [4] it was 3.95 µM; in assay [5] it was 7.1 µM; in assay [6], 3.31 µM. Also, the TGI in assay [7] was 19.4 µM; in assay [8], 27.5 µM; in assay [9], 8.16 µM; in assay [10], 3.46 µM.
For `CC(O)CN(CCN(CC(C)O)CC(C)O)CC(C)O.O=[N+]([O-])O.[Cu+2]` (stereo not given), the GI50 in assay [1] was above 100000 nM; in assay [2], 67300 nM; in [3], above 100000 nM; in [4], above 100000 nM; in assay [5], above 100000 nM; in assay [6], above 100 µM. In addition, the GI50 in assay [7] was above 100 µM; in assay [8], above 100 µM; in [9], above 100000 nM; in [10], above 100000 nM. The TGI in [1], in assay [2], in assay [3], in [4], in [5] and in assay [6] was above 100 µM in each case. Further, the TGI in assay [7], in assay [8], in assay [9] and in [10] was above 100 µM throughout.
Take `O=Nc1c(-c2cccc([N+](=O)[O-])c2)nc2ncccn12`: the GI50 in assay [1] was 10900 nM; in assay [2], 18300 nM; in [3] it was 2320 nM; in [4] it was 11000 nM; in assay [5] it was 15900 nM; in [6], 5.66 µM. The GI50 in [7] is 15.8 µM; in assay [8], 16.2 µM; in assay [9], 16400 nM. For the same compound, the TGI in assay [1] came out at 23.8 µM; in assay [2] it was 43.3 µM; in [3], 6.15 µM; in [4] it was 30.2 µM; in [5] it was 71.7 µM; in assay [6] it was 30.3 µM. For the same compound, the TGI in assay [7] was found to be 32.1 µM; in [8] it was 37 µM; in assay [9], 35.2 µM; in assay [10] it was 3.01 µM.
In the case of `COC(=O)c1oc2c(C(=O)/C=C/c3ccc(OC)cc3)c(OCCCN3CCCCC3)ccc2c1C`, the GI50 in assay [1] is 1890 nM; in assay [2], 2010 nM; in assay [3] it was 872 nM; in assay [4] it was 2040 nM; in assay [5] it was 2310 nM; in assay [6], 1.6 µM. The GI50 in assay [7] was 2.89 µM; in assay [8], 2.32 µM; in assay [9], 1690 nM; in assay [10] it was 66 nM. In addition, the TGI is 6.37 µM in assay [1]; 7.18 µM in assay [2]; 2.7 µM in assay [3]; 5.71 µM in assay [4]; 4.55 µM in assay [6]; 9.11 µM in assay [7]. Further, the TGI in assay [8] was found to be 6.38 µM; in assay [9], 3.78 µM; in assay [10], 0.487 µM.
`Fc1ccc(Nc2nc(Nc3ccc(-c4nc5ccccc5[nH]4)cc3)nc(N3CCCC3)n2)cc1`: the GI50 in assay [1] was 1700 nM; in assay [2], 2270 nM; in assay [3], 2640 nM; in assay [4], 17100 nM; in assay [5] it was 2890 nM; in [6] it was 3.13 µM. Moreover, the GI50 in [7] was 6.9 µM; in assay [8], 14.2 µM; in assay [9] it was 1870 nM; in assay [10], 2170 nM. Also, the TGI in assay [1] stood at 3.89 µM; in assay [2], 12.8 µM; in [3] it was 6.61 µM; in assay [4] it was 31.3 µM; in [5] it was 12.1 µM; in [6], 14.4 µM. Moreover, the TGI was 20.7 µM in assay [7], 34.9 µM in [8], 4.35 µM in assay [9] and 4.57 µM in assay [10].
Take `CCOC1NC(=O)Oc2ccccc21` (stereo not given): the TGI in [1], in assay [2], in assay [3], in assay [4], in [5] and in assay [6] was above 100 µM each time. Moreover, the TGI in [7], in assay [8], in assay [9] and in assay [10] was above 100 µM in each case.
On to `C[n+]1c2ccccc2c(NC2CCNCC2)c2[nH]c3ccccc3c21`, for which the GI50 in [1] is 524 nM; in assay [2] it was 391 nM; in assay [3] it was 1800 nM; in assay [4] it was 2330 nM; in assay [5], above 100000 nM; in assay [6] it was 13.9 µM. The GI50 was 2.13 µM in assay [7], 0.384 µM in [8] and 762 nM in assay [9]. Moreover, the TGI was 2.72 µM in assay [1]; 5.39 µM in [2]; above 22.6 µM in assay [3]; 8.53 µM in [4]; above 100 µM in assay [5]; 43.7 µM in assay [6]. Further, the TGI in assay [7] was determined as 13.3 µM; in assay [8], 2.52 µM; in assay [9] it was 7.19 µM; in [10] it was 0.46 µM.
